Measurements: ChEMBL document CHEMBL1153675, “Synthesis and opioid binding properties of 2-chloroacrylamido derivatives of 7,8-dihydromorphinans” (Bioorg Med Chem Lett, 1996)
pIC50: −log10 of the molar value.

What follows are molecules tested against Mu-type opioid receptor (Bos taurus, UniProt P79350) (assay: Compound was tested for Inhibition of [3H]DAMGO (0.25 nM) binding to mu receptor from bovine striatal membranes).
Chain of Mu-type opioid receptor (P79350 whole entry): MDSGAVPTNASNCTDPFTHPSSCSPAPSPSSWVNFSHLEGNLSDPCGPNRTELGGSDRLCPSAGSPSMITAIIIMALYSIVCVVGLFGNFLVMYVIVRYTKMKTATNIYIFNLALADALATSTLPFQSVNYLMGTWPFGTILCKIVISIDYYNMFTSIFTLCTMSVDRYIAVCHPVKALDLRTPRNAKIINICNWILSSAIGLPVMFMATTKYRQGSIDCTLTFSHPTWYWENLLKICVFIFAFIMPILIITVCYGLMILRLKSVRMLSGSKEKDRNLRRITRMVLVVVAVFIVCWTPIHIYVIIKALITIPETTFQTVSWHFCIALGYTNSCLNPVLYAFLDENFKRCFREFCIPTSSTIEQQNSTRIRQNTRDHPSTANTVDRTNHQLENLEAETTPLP

Row | Structure (SMILES) | pIC50
1 | C=C(Cl)C(=O)N[C@@]12CCC(=O)[C@@H]3Oc4c(O)ccc5c4C31CCN(CC1CC1)C2C5 (some centres undefined) | 7.63
2 | C=C(Cl)C(=O)N[C@@H]1CCC2C3Cc4ccc(O)c5c4C2(CCN3CC2CC2)[C@H]1O5 (some centres undefined) | 9.68
3 | C=C(Cl)C(=O)N[C@@]12CCC(=O)[C@@H]3Oc4c(O)ccc5c4C31CCN(C)C2C5 (some centres undefined) | 8.24
4 | C=C(Cl)C(=O)N[C@@H]1CCC2C3Cc4ccc(O)c5c4C2(CCN3C)[C@H]1O5 (some centres undefined) | 9.25
